ChEMBL document CHEMBL3872273, “α-Pyrone derivatives, tetra/hexahydroxanthones, and cyclodepsipeptides from two freshwater fungi” (Bioorg Med Chem, 2017)
Converted amounts (≈) assume the structure as drawn. The source made the active and inactive calls. No cut-off for these calls is given here.

Legend:
Staphylococcus aureus = assay: Antimicrobial activity against Staphylococcus aureus; format: functional
[1] = (§1) Inhibition of Salmonella typhimurium Peptidyl-tRNA hydrolase assessed as reduction in peptidyl-tRNA cleavage to free tRNA by gel electrophoresis; design: species or system Salmonella enterica subsp. enterica serovar Typhimurium
[2] = system: Mycolicibacterium smegmatis; assay: Antimicrobial activity against Mycobacterium smegmatis; format: functional
Aspergillus niger = assay: Antimicrobial activity against Aspergillus niger; format: functional
Escherichia coli [3] = assay: Inhibition of Escherichia coli Peptidyl-tRNA hydrolase assessed as reduction in peptidyl-tRNA cleavage to free tRNA by gel electrophoresis
Escherichia coli [4] = assay: Antimicrobial activity against Escherichia coli; format: functional
Pseudomonas aeruginosa = assay: Inhibition of Pseudomonas aeruginosa Peptidyl-tRNA hydrolase assessed as reduction in peptidyl-tRNA cleavage to free tRNA by gel electrophoresis
Candida albicans = assay: Antimicrobial activity against Candida albicans; format: functional
[5] = system: Salmonella enterica subsp. enterica serovar Typhimurium; assay: as §1

Structure (SMILES) | MIC (Staphylococcus aureus) [µg/mL] | IC50 [1] [µM] | MIC [2] [µg/mL] | MIC (Aspergillus niger) [µg/mL] | inhibition (Escherichia coli [3]) | MIC (Escherichia coli [4]) [µg/mL] | inhibition (Pseudomonas aeruginosa) | MIC (Candida albicans) [µg/mL] | inhibition [5]
COC(=O)[C@]12Oc3ccc(-c4ccc5c(c4O)C(=O)C4=C(O)C[C@@H](C)[C@H](O)[C@@]4(C(=O)OC)O5)c(O)c3C(=O)C1=C(O)C[C@@H](C)[C@@H]2O [SECALONIC ACID A] | > 75 | 1400 | > 75 | > 75 | Active | > 75 | Active | > 75 | –
CC[C@H](C)[C@@H]1NC(=O)[C@H](CCC(N)=O)N(C)C(=O)[C@@H](C(C)C)N(C)C(=O)CNC(=O)[C@@H]2CCCN2C(=O)[C@H](Cc2ccccc2)NC(=O)[C@H]([C@@H](C)CC)OC(=O)[C@H](CCC(=O)O)N(C)C(=O)[C@H](C(C)C)NC(=O)[C@@H]2CCCCN2C1=O | > 98 | – | > 98 | > 98 | – | > 98 | – | > 98 | –
COc1cc(=O)oc2c1CO[C@@H](CC(C)=O)C2 [PYRENOCINE K] | > 25 | – | > 25 | > 25 | – | > 25 | – | > 25 | –
CCCC(O)Cc1oc(=O)cc(OC)c1CO (racemic) | > 55 | – | > 55 | > 55 | – | > 55 | – | > 55 | –
CCCCCc1oc(=O)cc(OC)c1CO [PYRENOCINE M] | > 140 | – | > 140 | > 140 | – | > 140 | – | > 140 | –
CCC[C@H]1Cc2oc(=O)cc(OC)c2[C@H](O)O1 | > 75 | – | > 75 | > 75 | – | 75 (≈ 312 µM) | – | > 75 | –
COC(=O)[C@]12Oc3cccc(O)c3C(=O)[C@@H]1[C@H](O)C[C@@H](C)[C@@H]2O | > 100 | – | > 100 | > 100 | Active | > 100 | Active | 100 (≈ 310 µM) | Active
CCC[C@@H](O)Cc1oc(=O)cc(OC)c1C | > 155 | – | > 155 | > 155 | – | > 155 | – | > 155 | –
COc1cc(=O)oc(CO)c1C | > 25 | – | 25 (≈ 147 µM) | > 25 | – | 25 (≈ 147 µM) | – | 25 (≈ 147 µM) | –
CC[C@H](C)[C@@H]1NC(=O)[C@H](CCC(N)=O)N(C)C(=O)[C@@H](C(C)C)N(C)C(=O)CNC(=O)[C@@H]2CCCN2C(=O)[C@H](Cc2ccccc2)NC(=O)[C@H]([C@@H](C)CC)OC(=O)[C@H](CCC(=O)O)N(C)C(=O)[C@H](C(C)C)NC(=O)[C@@H]2CCCN2C1=O | > 125 | – | > 125 | > 125 | – | > 125 | – | > 125 | –
CCC[C@H]1Cc2oc(=O)cc(OC)c2CO1 | > 203 | – | > 203 | 203 (≈ 905 µM) | Active | > 203 | Active | > 203 | Active
CCC[C@H]1OCc2c(OC)cc(=O)oc2[C@H]1O | > 145 | – | 145 (≈ 604 µM) | > 145 | Active | > 145 | Active | 145 (≈ 604 µM) | Active
COc1cc(=O)oc2c1CO[C@@H](C[C@@H](C)O)C2 | – | – | – | – | Active | – | Active | – | Active
COC(=O)[C@]12Oc3cccc(O)c3C(=O)[C@@H]1[C@@H](O)C[C@@H](C)[C@@H]2O | > 75 | – | > 75 | > 75 | – | > 75 | – | > 75 | –
CCCCC(O)c1cc(OC)c(C)c(=O)o1 (racemic) | > 35 | – | > 35 | > 35 | – | > 35 | – | > 35 | –
COc1cc(=O)oc2c1CO[C@@H](CO)C2 | > 53 | – | > 53 | > 53 | Active | > 53 | Active | > 53 | Active
COC(=O)[C@]12Oc3cccc(O)c3C(=O)C1=C(O)C[C@@H](C)[C@@H]2O | > 65 | – | > 65 | > 65 | Active | > 65 | Active | > 65 | Active
